Target: LAT1 (Homo sapiens (Human), UniProt Q01650)
Assay: LAT1 uptake inhibition assay: [3H]-gabapentin competition uptake in LN229 cells
Type: cell-based
Details: [3H]-gabapentin uptake, 15 min incubation in PBS, read-out: IC50, the concentration of test compound at which the [3H]-GP uptake was inhibited by 50%
Protocol: LAT1 Uptake Inhibition Assay
The ability of compounds to interact with LAT1 was measured using a radiolabeled competition uptake assay with [^3H]-Gabapentin ([^3H]-GP) (Perkin Elmer) in 96-well plates with LN229 cells (ATCC®). Ten (10)×10^3 (10,000) cells/well were plated in white, clear bottom plates and were allowed to grow for three (3) days. On the fourth day, the cells were washed and then incubated with 50,000 counts per minute (cpm) of [^3H]-GP in phosphate buffered saline (PBS) (VWR International) with increasing concentrations of test compounds in at least triplicate for 15 min. At end of the assay time, the incubation solution was removed, and plates were washed three times (3×) with 100 μL of ice-cold PBS buffer. One-hundred fifty (150) […] of scintillation fluid (VWR International) was added to each well, and the radioactivity retained within the cells was measured on a 96-well scintillation counter. Background uptake ([^3H]-GP uptake in the presence of 10 mM non-radiolabeled gabapentin (GP)) (MedKoo) was subtracted and data were normalized to the DMSO control ([^3H]-GP uptake in the absence of any competitor). Data were fitted to the Michaelis-Menten equation using GraphPad Prism (Version 8.2.0).

Sequence of LAT1 (Q01650 whole entry): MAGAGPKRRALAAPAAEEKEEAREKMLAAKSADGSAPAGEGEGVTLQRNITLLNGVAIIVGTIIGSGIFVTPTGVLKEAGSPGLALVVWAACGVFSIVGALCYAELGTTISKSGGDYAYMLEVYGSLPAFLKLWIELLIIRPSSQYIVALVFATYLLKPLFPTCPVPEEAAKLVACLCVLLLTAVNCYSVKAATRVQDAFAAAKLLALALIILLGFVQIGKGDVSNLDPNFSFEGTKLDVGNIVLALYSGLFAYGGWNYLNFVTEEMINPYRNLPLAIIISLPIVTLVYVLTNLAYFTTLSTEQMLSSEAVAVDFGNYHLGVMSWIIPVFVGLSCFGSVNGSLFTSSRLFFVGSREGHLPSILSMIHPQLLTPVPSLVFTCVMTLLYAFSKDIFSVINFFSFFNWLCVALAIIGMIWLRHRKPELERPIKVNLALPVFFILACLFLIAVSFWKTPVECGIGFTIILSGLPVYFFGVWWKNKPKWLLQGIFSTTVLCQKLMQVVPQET
Sequence of LAT1 (P08195 whole entry partner): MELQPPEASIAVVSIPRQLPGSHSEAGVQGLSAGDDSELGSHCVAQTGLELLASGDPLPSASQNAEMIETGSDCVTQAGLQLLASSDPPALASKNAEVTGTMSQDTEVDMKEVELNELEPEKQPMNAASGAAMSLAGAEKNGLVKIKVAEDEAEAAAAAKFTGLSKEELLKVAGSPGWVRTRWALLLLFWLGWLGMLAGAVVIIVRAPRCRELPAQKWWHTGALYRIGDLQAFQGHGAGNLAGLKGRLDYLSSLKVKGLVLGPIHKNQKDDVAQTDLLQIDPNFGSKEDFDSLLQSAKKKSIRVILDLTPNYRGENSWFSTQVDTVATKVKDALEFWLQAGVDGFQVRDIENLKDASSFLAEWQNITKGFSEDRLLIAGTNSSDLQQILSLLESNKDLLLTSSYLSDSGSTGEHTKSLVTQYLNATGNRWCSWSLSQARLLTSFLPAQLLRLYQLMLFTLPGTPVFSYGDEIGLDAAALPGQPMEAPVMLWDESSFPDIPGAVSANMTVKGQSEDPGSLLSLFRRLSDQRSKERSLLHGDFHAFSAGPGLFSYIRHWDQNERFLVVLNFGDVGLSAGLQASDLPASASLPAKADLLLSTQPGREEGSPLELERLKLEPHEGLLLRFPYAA

First: CS(=O)(=O)Nc1ccccc1C[C@H](N)C(=O)O [Compound 1, (S)-2-Amino-3-(2-(methylsulfonamido)phenyl)propanoic Acid]
Second: Cc1ccc(NS(=O)(=O)Cc2ccccc2)cc1C[C@H](N)C(=O)O [Compound 23, (S)-2-Amino-3-(2-methyl-5-((phenylmethyl)sulfonamido)phenyl)propanoic Acid]
The IC50 of the first is higher: ≥ 10000 nM for the first, 100 to 1000 nM for the second. The second is the more potent here.

Cc1ccc(NS(=O)(=O)c2cccc3c(N(C)C)cccc23)cc1C[C@H](N)C(=O)O [Compound 2, (S)-2-Amino-3-(5-((5-(dimethylamino)naphthalene)-1-sulfonamido)-2-methylphenyl)propanoic Acid] and CN(C)c1cccc2c(S(=O)(=O)Nc3ccc(Cl)c(C[C@H](N)C(=O)O)c3)cccc12 [Compound 15, (S)-2-Amino-3-(2-chloro-5-((5-(dimethylamino)naphthalene)-1-sulfonamido)phenyl)propanoic Acid] fall in the same range of IC50: 100 to 1000 nM for the first, 100 to 1000 nM for the second.

First: CN(C)c1cccc2c(S(=O)(=O)Nc3cccc(C[C@H](N)C(=O)O)c3)cccc12 [Compound 3, (S)-2-Amino-3-(3-((5-(dimethylamino)naphthalene)-1-sulfonamido)phenyl)propanoic Acid]
Second: CN(C)c1cccc2c(S(=O)(=O)Nc3ccc(C[C@H](N)C(=O)O)cc3)cccc12 [Compound 4, (S)-2-amino-3-(4-((5-(dimethylamino)naphthalene)-1-sulfonamido)phenyl)propanoic acid]
The IC50 of the first is lower: 100 to 1000 nM for the first, 1000 to 10000 nM for the second. The first is the more potent here.

Compared with COc1ccc(NS(=O)(=O)c2cccc3c(N(C)C)cccc23)cc1C[C@H](N)C(=O)O [Compound 5, (S)-2-Amino-3-(5-((5-(dimethylamino)naphthalene)-1-sulfonamido)-2-methoxyphenyl)propanoic Acid], COc1cc(NS(=O)(=O)c2cccc3c(N(C)C)cccc23)ccc1C[C@H](N)C(=O)O [Compound 8, (S)-2-Amino-3-(4-((5-(dimethylamino)naphthalene)-1-sulfonamido)-2-methoxyphenyl)propanoic Acid] is higher in IC50: 100 to 1000 nM for the first, 1000 to 10000 nM for the second.

Compared with Cc1ccc(NS(=O)(=O)c2cccc3ccccc23)cc1C[C@H](N)C(=O)O [Compound 6, (S)-2-Amino-3-(2-methyl-5-(naphthalene-1-sulfonamido)phenyl)propanoic Acid], Cc1ccc(NS(=O)(=O)c2cccc3ncccc23)cc1C[C@H](N)C(=O)O [Compound 9, (S)-2-Amino-3-(2-methyl-5-(quinoline-5-sulfonamido)phenyl)propanoic Acid] is higher in IC50: 100 to 1000 nM for the first, 1000 to 10000 nM for the second.

Cc1ccc(S(=O)(=O)Nc2ccc(C)c(C[C@H](N)C(=O)O)c2)cc1 [Compound 7, (S)-2-Amino-3-(2-methyl-5-((4-methylphenyl)sulfonamido)phenyl)propanoic Acid] and Cc1ccc(NS(=O)(=O)c2cccc(N)c2)cc1C[C@H](N)C(=O)O [Compound 28, (S)-2-Amino-3-(5-((3-aminophenyl)sulfonamido)-2-methylphenyl)propanoic Acid] fall in the same range of IC50: 100 to 1000 nM for the first, 100 to 1000 nM for the second.

Cc1ccc(NS(=O)(=O)c2cccnc2)cc1C[C@H](N)C(=O)O [Compound 11, (S)-2-Amino-3-(2-methyl-5-(pyridine-3-sulfonamido)phenyl)propanoic Acid] and Cc1ccc(NS(=O)(=O)c2c[nH]cn2)cc1C[C@H](N)C(=O)O [Compound 31, (S)-3-(5-(1H-imidazole-4-sulfonamido)-2-methylphenyl)-2-aminopropanoic Acid] cannot be ordered by IC50: 1000 to 10000 nM for the first, ≥ 10000 nM for the second.

Cc1ccc(NS(=O)(=O)C2CCOCC2)cc1C[C@H](N)C(=O)O [Compound 12, (S)-2-Amino-3-(2-methyl-5-((tetrahydro-2H-pyran)-4-sulfonamido)phenyl)propanoic Acid] and Cc1ccc(NS(=O)(=O)C2CC2)cc1C[C@H](N)C(=O)O [Compound 14, (S)-2-Amino-3-(5-(cyclopropanesulfonamido)-2-methylphenyl)propanoic Acid] fall in the same range of IC50: 1000 to 10000 nM for the first, 1000 to 10000 nM for the second.

First: CC(=O)Nc1ccc(S(=O)(=O)Nc2ccc(C)c(C[C@H](N)C(=O)O)c2)c2ccccc12 [Compound 13, (S)-3-(5-((4-Acetamidonaphthalene)-1-sulfonamido)-2-methylphenyl)-2-aminopropanoic Acid]
Second: Cc1ccc(NS(=O)(=O)c2csc3ccccc23)cc1C[C@H](N)C(=O)O [Compound 27, (S)-2-Amino-3-(5-(benzo[b]thiophene-3-sulfonamido)-2-methylphenyl)propanoic Acid]
The IC50 of the first is higher: 1000 to 10000 nM for the first, 100 to 1000 nM for the second.

Compared with Cc1ccc(N(C)S(=O)(=O)c2cccc3c(N(C)C)cccc23)cc1C[C@H](N)C(=O)O [Compound 16, (S)-2-Amino-3-(5-((5-(dimethylamino)-N-methylnaphthalene)-1-sulfonamido)-2-methylphenyl)propanoic Acid], CC(C)c1ccc(NS(=O)(=O)c2cccc3c(N(C)C)cccc23)cc1C[C@@H](N)C(=O)O [Compound 34, (R)-2-Amino-3-(5-((5-(dimethylamino)naphthalene)-1-sulfonamido)-2-isopropylphenyl)propanoic Acid] is higher in IC50: 100 to 1000 nM for the first, 1000 to 10000 nM for the second.

Cc1ccc(NS(=O)(=O)c2ccc(-c3ccccc3)cc2)cc1C[C@H](N)C(=O)O [Compound 17, (S)-3-(5-([1,1′-Biphenyl]-4-sulfonamido)-2-methylphenyl)-2-aminopropanoic Acid] and Cc1ccc(S(=O)(=O)Nc2cccc(S(=O)(=O)Nc3ccc(C)c(C[C@H](N)C(=O)O)c3)c2)cc1 [Compound 32, (S)-2-Amino-3-(2-methyl-5-((3-((4-methylphenyl)sulfonamido)phenyl)sulfonamido)phenyl)propanoic Acid] fall in the same range of IC50: 100 to 1000 nM for the first, 100 to 1000 nM for the second.

Cc1ccc(NS(=O)(=O)c2cn(C)c(C)n2)cc1C[C@H](N)C(=O)O [Compound 18, (S)-2-Amino-3-(5-((1,2-dimethyl-1H-imidazole)-4-sulfonamido)-2-methylphenyl)propanoic Acid] and Cc1ccc(NS(=O)(=O)C(C)C)cc1C[C@H](N)C(=O)O [Compound 20, (S)-2-Amino-3-(2-methyl-5-((1-methylethyl)sulfonamido)phenyl)propanoic Acid] cannot be ordered by IC50: ≥ 10000 nM for the first, 1000 to 10000 nM for the second.

CN(C)c1cccc2c(S(=O)(=O)Nc3ccccc3C[C@H](N)C(=O)O)cccc12 [Compound 19, (S)-2-Amino-3-(2-((5-(dimethylamino)naphthalene)-1-sulfonamido)phenyl)propanoic Acid] and N[C@@H](Cc1cccc(NS(=O)(=O)c2ccccc2)c1)C(=O)O [Compound 37, (S)-2-Amino-3-(3-(phenylsulfonamido)phenyl)propanoic Acid] fall in the same range of IC50: 100 to 1000 nM for the first, 100 to 1000 nM for the second.

Compared with Cc1ccc(NS(=O)(=O)C[C@@]23CC[C@H](CC2=O)C3(C)C)cc1C[C@H](N)C(=O)O [Compound 22, (S)-2-Amino-3-(5-((((1R,4R)-7,7-dimethyl-2-oxobicyclo[2.2.1]heptan-1-yl)methyl)sulfonamido)-2-methylphenyl)propanoic Acid], Cc1ccc(NS(=O)(=O)C2CCCCC2)cc1C[C@H](N)C(=O)O [Compound 26, (S)-2-Amino-3-(5-(cyclohexanesulfonamido)-2-methylphenyl)propanoic Acid] is lower in IC50: 1000 to 10000 nM for the first, 100 to 1000 nM for the second. The second is the more potent here.

Cc1ccc(NS(=O)(=O)c2ccc(Cl)c3nonc23)cc1C[C@H](N)C(=O)O [Compound 24, (S)-2-Amino-3-(5-((7-chlorobenzo[c][1,2,5]oxadiazole)-4-sulfonamido)-2-methylphenyl)propanoic Acid] and Cc1ccc(NS(=O)(=O)c2cccc3nonc23)cc1C[C@H](N)C(=O)O [Compound 25, (S)-2-Amino-3-(5-(benzo[c][1,2,5]oxadiazole-4-sulfonamido)-2-methylphenyl)propanoic Acid] fall in the same range of IC50: 1000 to 10000 nM for the first, 1000 to 10000 nM for the second.

Cc1ccc(S(=O)(=O)Nc2ccc(S(=O)(=O)Nc3ccc(C)c(C[C@H](N)C(=O)O)c3)cc2)cc1 [Compound 33, (S)-2-Amino-3-(2-methyl-5-((4-((4-methylphenyl)sulfonamido)phenyl)sulfonamido)phenyl)propanoic Acid] and Cc1ccc(NS(=O)(=O)c2c(Cl)cccc2Cl)cc1C[C@H](N)C(=O)O [Compound 42, (S)-2-Amino-3-(5-((2,6-dichlorophenyl)sulfonamido)-2-methylphenyl)propanoic Acid] fall in the same range of IC50: 100 to 1000 nM for the first, 100 to 1000 nM for the second.

Compared with Cc1ccc(NS(=O)(=O)c2c(Cl)cc(C(F)(F)F)cc2Cl)cc1C[C@H](N)C(=O)O [Compound 36, (S)-2-Amino-3-(5-((2,6-dichloro-4-(trifluoromethyl)phenyl)sulfonamido)-2-methylphenyl)propanoic Acid], Cc1ccc(NS(=O)(=O)c2cc(Cl)cc(Cl)c2)cc1C[C@H](N)C(=O)O [Compound 43, (S)-2-Amino-3-(5-((3,5-dichlorophenyl)sulfonamido)-2-methylphenyl)propanoic Acid] is lower in IC50: 1000 to 10000 nM for the first, 100 to 1000 nM for the second.

First: Cc1ccc(S(=O)(=O)N2CCC[C@@H]2C(=O)O)cc1C[C@H](N)C(=O)O [Compound 45, ((3-((S)-2-Amino-2-carboxyethyl)-4-methylphenyl)sulfonyl)-D-proline]
Second: Cc1ccc(S(=O)(=O)NCC(C)C)cc1C[C@H](N)C(=O)O [Compound 46, (S)-2-Amino-3-(5-(N-isobutylsulfamoyl)-2-methylphenyl)propanoic Acid]
The IC50 of the first is higher: ≥ 10000 nM for the first, 100 to 1000 nM for the second. The second is the more potent here.

With N[C@@H](Cc1cc(Cl)c(NS(=O)(=O)c2ccccc2)c(Cl)c1)C(=O)O [Compound 47, (S)-2-Amino-3-(3,5-dichloro-4-(phenylsulfonamido)phenyl)propanoic Acid] the IC50 was ≥ 10000 nM.

Source: patent publication US20250319046A1, “PHENYLALANINE-BASED LAT1 INHIBITORS AND USES THEREOF” (MAXYMUNE THERAPEUTICS, INC., priority 2024, published 2025)
